Source: ChEMBL document CHEMBL1201862, “PubChem BioAssay data set” (2004)
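These data come from cells grown in 96-well plates and exposed to compound for 48 hours at five concentrations. At the GI50, growth is halved.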 The source made the active and inactive calls. No stated cut-off is given here; in the data, active = GI50 up to about 1.1 µM and inactive = higher.

What was measured:
Assay in all cases: DTP human tumour cell line panel, 48 h
CCRF-CEM = tested on: CCRF-CEM
EKVX = tested on: EKVX
HCT-116 = tested on: HCT-116
KM12 = tested on: KM12
LOX IMVI = tested on: LOX IMVI
M14 = tested on: M14
NCI-H460 = tested on: NCI-H460
OVCAR-4 = tested on: OVCAR-4
RXF 393 = tested on: RXF 393
SF-268 = tested on: SF-268
SF-539 = tested on: SF-539
SK-MEL-2 = tested on: SK-MEL-2
SK-MEL-5 = tested on: SK-MEL-5
SN12C = tested on: SN12C
SNB-19 = tested on: SNB-19
SR = tested on: SR
TK-10 = tested on: TK-10
U-251 = tested on: U-251
UACC-257 = tested on: UACC-257
HCC 2998 = tested on: HCC 2998

Structure (SMILES)	GI50 (CCRF-CEM)	GI50 (EKVX)	GI50 (HCT-116)	GI50 (KM12)	GI50 (LOX IMVI)	GI50 (M14)	GI50 (NCI-H460)	GI50 (OVCAR-4)	GI50 (RXF 393)	GI50 (SF-268)	GI50 (SF-539)	GI50 (SK-MEL-2)	GI50 (SK-MEL-5)	GI50 (SN12C)	GI50 (SNB-19)	GI50 (SR)	GI50 (TK-10)	GI50 (U-251)	GI50 (UACC-257)	GI50 (HCC 2998)
CC(=O)c1nccc2c1c(C)nc1ccccc12	16.4 µM (inactive)	52.2 µM (inactive)	64.3 µM (inactive)	38.7 µM (inactive)	57 µM (inactive)	> 100 µM (inactive)	32.8 µM (inactive)	> 100 µM (inactive)	38.5 µM (inactive)	64.3 µM (inactive)	> 100 µM (inactive)	> 100 µM (inactive)	60.8 µM (inactive)	32.7 µM (inactive)	> 100 µM (inactive)	26.4 µM (inactive)	> 100 µM (inactive)	> 100 µM (inactive)	> 100 µM (inactive)	–
Cc1cc(O)nc(NN2C(Cl)C(=O)C2c2cccc([N+](=O)[O-])c2)n1 (centres undefined)	3.52 µM (inactive)	63.4 µM (inactive)	19.7 µM (inactive)	25.9 µM (inactive)	12.3 µM (inactive)	17.3 µM (inactive)	26.3 µM (inactive)	23.6 µM (inactive)	10 µM (inactive)	35.2 µM (inactive)	–	19 µM (inactive)	17.5 µM (inactive)	18.1 µM (inactive)	44 µM (inactive)	16.9 µM (inactive)	38.3 µM (inactive)	20 µM (inactive)	29 µM (inactive)	18.5 µM (inactive)
CCOC(=O)c1nc2ccc(C(F)(F)F)cc2nc1NCc1ccc(Cl)c(Cl)c1	> 100 µM (inactive)	22.8 µM (inactive)	27 µM (inactive)	28.7 µM (inactive)	30.8 µM (inactive)	36.9 µM (inactive)	45.6 µM (inactive)	21 µM (inactive)	24.4 µM (inactive)	39.9 µM (inactive)	61.9 µM (inactive)	63.8 µM (inactive)	31.9 µM (inactive)	–	28.3 µM (inactive)	37.9 µM (inactive)	34.2 µM (inactive)	58.6 µM (inactive)	42.4 µM (inactive)	–
O=C1CSC(c2ccc(Cl)cc2Cl)N1c1ccc(Oc2ccc(Cl)cc2)c(Cl)c1 (centres undefined)	13.5 µM (inactive)	23.3 µM (inactive)	16.9 µM (inactive)	20.2 µM (inactive)	16.7 µM (inactive)	23.9 µM (inactive)	27.4 µM (inactive)	23.8 µM (inactive)	–	16 µM (inactive)	21.6 µM (inactive)	22.4 µM (inactive)	19 µM (inactive)	37.7 µM (inactive)	23.6 µM (inactive)	16.3 µM (inactive)	51.4 µM (inactive)	31.8 µM (inactive)	37.1 µM (inactive)	31 µM (inactive)
O=C(CC(=O)Nc1ccc(C(=O)O)cc1)Nc1ccc(C(=O)O)cc1	> 100 µM (inactive)	> 100 µM (inactive)	> 100 µM (inactive)	> 100 µM (inactive)	> 100 µM (inactive)	> 100 µM (inactive)	> 100 µM (inactive)	> 100 µM (inactive)	–	34.6 µM (inactive)	> 100 µM (inactive)	17.3 µM (inactive)	> 100 µM (inactive)	> 100 µM (inactive)	> 100 µM (inactive)	> 100 µM (inactive)	> 100 µM (inactive)	> 100 µM (inactive)	> 100 µM (inactive)	> 100 µM (inactive)
Cc1ccc(NC(=O)/C(=N\Nc2ccc([N+](=O)[O-])cc2[N+](=O)[O-])C2C(=O)NC(=O)NC2=O)cc1	31.8 µM (inactive)	–	62.4 µM (inactive)	53.2 µM (inactive)	> 100 µM (inactive)	89.7 µM (inactive)	71 µM (inactive)	65.5 µM (inactive)	48.9 µM (inactive)	32 µM (inactive)	17.9 µM (inactive)	–	33.2 µM (inactive)	> 100 µM (inactive)	> 100 µM (inactive)	> 100 µM (inactive)	> 100 µM (inactive)	38.6 µM (inactive)	> 100 µM (inactive)	–
O=C1c2ccccc2C(=O)c2cc(/N=N/c3c(O)ccc4ccccc34)ccc21	> 100 µM (inactive)	89.7 µM (inactive)	> 100 µM (inactive)	> 100 µM (inactive)	> 100 µM (inactive)	> 100 µM (inactive)	–	> 100 µM (inactive)	> 100 µM (inactive)	30.1 µM (inactive)	–	> 100 µM (inactive)	> 100 µM (inactive)	> 100 µM (inactive)	> 100 µM (inactive)	> 100 µM (inactive)	> 100 µM (inactive)	56.4 µM (inactive)	> 100 µM (inactive)	–
CCOC(=O)c1ccc(C(=O)C(C(C)=O)C(=O)OC(C)(C)C)[nH]1 (centres undefined)	–	> 100 µM (inactive)	> 100 µM (inactive)	> 100 µM (inactive)	> 100 µM (inactive)	> 100 µM (inactive)	> 100 µM (inactive)	> 100 µM (inactive)	> 100 µM (inactive)	> 100 µM (inactive)	–	> 100 µM (inactive)	> 100 µM (inactive)	> 100 µM (inactive)	> 100 µM (inactive)	> 100 µM (inactive)	–	> 100 µM (inactive)	–	> 100 µM (inactive)
O=C(c1cccs1)N(C(=S)N1CCN(c2ccccc2)CC1)c1ccccc1	> 100 µM (inactive)	–	> 100 µM (inactive)	> 100 µM (inactive)	> 100 µM (inactive)	> 100 µM (inactive)	> 100 µM (inactive)	> 100 µM (inactive)	> 100 µM (inactive)	> 100 µM (inactive)	> 100 µM (inactive)	> 100 µM (inactive)	> 100 µM (inactive)	> 100 µM (inactive)	> 100 µM (inactive)	> 100 µM (inactive)	> 100 µM (inactive)	> 100 µM (inactive)	> 100 µM (inactive)	–
O=C1/C(=C/c2cccs2)N=C(c2ccccc2)N1C1Nc2cc3c(cc2S1)NC(N1C(=O)/C(=C/c2cccs2)N=C1c1ccccc1)S3 (centres undefined)	–	15.6 µM (inactive)	15 µM (inactive)	32.8 µM (inactive)	15 µM (inactive)	18.2 µM (inactive)	6.97 µM (inactive)	24.9 µM (inactive)	23.3 µM (inactive)	20.2 µM (inactive)	14 µM (inactive)	18.6 µM (inactive)	17 µM (inactive)	–	–	3.07 µM (inactive)	41.5 µM (inactive)	16 µM (inactive)	71.9 µM (inactive)	19.3 µM (inactive)
N#Cc1c(Nc2ccc(F)cc2)[n+]([O-])c2ccc(Cl)cc2[n+]1[O-]	2.62 µM (inactive)	–	3.05 µM (inactive)	5.57 µM (inactive)	0.975 µM (active)	3.36 µM (inactive)	2.38 µM (inactive)	2.03 µM (inactive)	4.36 µM (inactive)	2.53 µM (inactive)	2.56 µM (inactive)	3.67 µM (inactive)	3.91 µM (inactive)	2.55 µM (inactive)	6 µM (inactive)	1.57 µM (inactive)	19.9 µM (inactive)	2.38 µM (inactive)	2.91 µM (inactive)	–
Cc1ccc([N+](=O)[O-])cc1S(=O)(=O)Nc1ccc(C2=NN(c3ccc([N+](=O)[O-])cc3[N+](=O)[O-])C(c3ccccc3)C2)cc1 (centres undefined)	22.1 µM (inactive)	18.6 µM (inactive)	13 µM (inactive)	18.3 µM (inactive)	17.1 µM (inactive)	17.4 µM (inactive)	–	19.8 µM (inactive)	14.8 µM (inactive)	13.1 µM (inactive)	20.3 µM (inactive)	13.6 µM (inactive)	11.9 µM (inactive)	17.2 µM (inactive)	17.1 µM (inactive)	22.4 µM (inactive)	26.4 µM (inactive)	12.7 µM (inactive)	16.2 µM (inactive)	–
CCOC(=O)c1c(-c2ccccc2)c(C(OC(c2ccccc2)c2c(-c3ccccc3)c(C(=O)OCC)n3ccccc23)c2ccccc2)c2ccccn12 (centres undefined)	> 100 µM (inactive)	> 100 µM (inactive)	> 100 µM (inactive)	> 100 µM (inactive)	> 100 µM (inactive)	> 100 µM (inactive)	> 100 µM (inactive)	> 100 µM (inactive)	> 100 µM (inactive)	> 100 µM (inactive)	–	> 100 µM (inactive)	–	> 100 µM (inactive)	> 100 µM (inactive)	> 100 µM (inactive)	> 100 µM (inactive)	–	> 100 µM (inactive)	> 100 µM (inactive)
O=C1OC(c2ccc(O)cc2)(c2ccc(O)cc2)c2ccc(Cl)c3cccc1c23.O=C1OC(c2ccc(O)cc2)(c2ccc(O)cc2)c2cccc3c(Cl)ccc1c23	15.5 µM (inactive)	0.075 µM (active)	9.46 µM (inactive)	8.11 µM (inactive)	10.9 µM (inactive)	10 µM (inactive)	12.4 µM (inactive)	0.0384 µM (active)	10.8 µM (inactive)	15.9 µM (inactive)	10.7 µM (inactive)	12.6 µM (inactive)	12.7 µM (inactive)	8.47 µM (inactive)	23.1 µM (inactive)	9.04 µM (inactive)	13.6 µM (inactive)	11.9 µM (inactive)	22.2 µM (inactive)	–
Cc1ncc([N+](=O)[O-])n1CC[N+](C)([O-])CCCCn1ccnc1[N+](=O)[O-] (centres undefined)	> 100 µM (inactive)	> 100 µM (inactive)	> 100 µM (inactive)	> 100 µM (inactive)	> 100 µM (inactive)	> 100 µM (inactive)	> 100 µM (inactive)	> 100 µM (inactive)	> 100 µM (inactive)	> 100 µM (inactive)	> 100 µM (inactive)	> 100 µM (inactive)	> 100 µM (inactive)	> 100 µM (inactive)	–	> 100 µM (inactive)	> 100 µM (inactive)	> 100 µM (inactive)	> 100 µM (inactive)	–
